Consider three molecules from PMC12441834, “Highly Potent and Subtype-Selective Sperm-Specific Potassium Channel SLO3 Inhibitors Display High Tissue Exposure in the Murine Female Reproductive Tract” (ACS Pharmacology & Translational Science, 2025).

Read-outs that look alike come from different tables or passages of the source.

Data set [1] addresses T1, hERG (Homo sapiens, UniProt Q12809).
T1 construct: expressed in transfected cells
As to the kind of experiment: hERG patch clamp electrophysiology (HEK-293-hERG). In kind it is cell-based. The settings on record: for selectivity ratio: human, HEK-293 cells stably expressing hERG, pH 7.35, hERG IC50 / hSLO3 IC50, read-out: hERG selectivity [fold] (SLO3 versus hERG); for IC50: whole-cell patch clamp, HEK-293-hERG. On the procedure:
Whole-cell patch-clamp electrophysiology was used to record hERG currents from a stably transfected monoclonal cell line expressing human hERG. The HEK-293-hERG cell line was generously provided by Dr. David Weaver (Vanderbilt University). Cells were cultured in a 5% CO2 incubator at 37 °C, dissociated with 0.25% Trypsin-EDTA, and seeded onto 12 mm circular coverslips (Electron Microscopy Sciences, PA, USA) for same-day whole-cell patch-clamp recordings. hERG currents were recorded at room temperature by using an AxoPatch 200B amplifier with Clampex 10.7 software (Molecular Devices, USA). The voltage-clamp protocol consisted of a 4-s step to +30 mV from a −80 mV holding potential, followed by a 4-s step to −40 mV, repeated every 10 s. Data were sampled at 5 kHz and filtered at 1 kHz. Patch pipettes, pulled from 1.5 mm OD thin-walled capillaries (Warner Instruments, MA, USA) using a Sutter P-1000 puller (Sutter Instrument, CA, USA), had resistances of 2–3 MΩ when filled with intracellular solution containing (mM): 135 KCl, 10 HEPES, 1 EGTA, 2 MgCl2, 2 Na2ATP (pH 7.35, adjusted with KOH). The extracellular solution contained (mM): 135 NaCl, 5 KCl, 2 CaCl2, 1 MgCl2, 5 Glucose, 10 HEPES, and 10 Sucrose (pH 7.35, adjusted with NaOH). After establishing stable baseline hERG currents, cells were perfused with compounds at concentrations of 0.03–30 μM until response saturation (typically 2–8 min). Recordings concluded with a 10 μM Quinidine solution to isolate Quinidine-sensitive currents, with compound responses expressed as fractions of this current. Peak “tail” current amplitudes at the beginning of −40 mV steps were analyzed using Clampfit 11.2 (Molecular Devices). IC50 values were calculated by fitting the Hill equation to concentration–response curves (CRCs) using the built-in Y = Bottom + (Top – Bottom)/(1 + (IC50/X)^HillSlope) model (nonlinear regression fit: [Inhibitor] vs response – Variable slope (four parameters)) in GraphPad Prism 10.4 (GraphPad Software).
(In general: Block of hERG is tested as a sign of cardiac risk.)

For data set [2], the target named is T2, human SLO3 (Homo sapiens, UniProt A8MYU2).
T2 construct: expressed in transfected cells
T2 sequence (A8MYU2 1-1149): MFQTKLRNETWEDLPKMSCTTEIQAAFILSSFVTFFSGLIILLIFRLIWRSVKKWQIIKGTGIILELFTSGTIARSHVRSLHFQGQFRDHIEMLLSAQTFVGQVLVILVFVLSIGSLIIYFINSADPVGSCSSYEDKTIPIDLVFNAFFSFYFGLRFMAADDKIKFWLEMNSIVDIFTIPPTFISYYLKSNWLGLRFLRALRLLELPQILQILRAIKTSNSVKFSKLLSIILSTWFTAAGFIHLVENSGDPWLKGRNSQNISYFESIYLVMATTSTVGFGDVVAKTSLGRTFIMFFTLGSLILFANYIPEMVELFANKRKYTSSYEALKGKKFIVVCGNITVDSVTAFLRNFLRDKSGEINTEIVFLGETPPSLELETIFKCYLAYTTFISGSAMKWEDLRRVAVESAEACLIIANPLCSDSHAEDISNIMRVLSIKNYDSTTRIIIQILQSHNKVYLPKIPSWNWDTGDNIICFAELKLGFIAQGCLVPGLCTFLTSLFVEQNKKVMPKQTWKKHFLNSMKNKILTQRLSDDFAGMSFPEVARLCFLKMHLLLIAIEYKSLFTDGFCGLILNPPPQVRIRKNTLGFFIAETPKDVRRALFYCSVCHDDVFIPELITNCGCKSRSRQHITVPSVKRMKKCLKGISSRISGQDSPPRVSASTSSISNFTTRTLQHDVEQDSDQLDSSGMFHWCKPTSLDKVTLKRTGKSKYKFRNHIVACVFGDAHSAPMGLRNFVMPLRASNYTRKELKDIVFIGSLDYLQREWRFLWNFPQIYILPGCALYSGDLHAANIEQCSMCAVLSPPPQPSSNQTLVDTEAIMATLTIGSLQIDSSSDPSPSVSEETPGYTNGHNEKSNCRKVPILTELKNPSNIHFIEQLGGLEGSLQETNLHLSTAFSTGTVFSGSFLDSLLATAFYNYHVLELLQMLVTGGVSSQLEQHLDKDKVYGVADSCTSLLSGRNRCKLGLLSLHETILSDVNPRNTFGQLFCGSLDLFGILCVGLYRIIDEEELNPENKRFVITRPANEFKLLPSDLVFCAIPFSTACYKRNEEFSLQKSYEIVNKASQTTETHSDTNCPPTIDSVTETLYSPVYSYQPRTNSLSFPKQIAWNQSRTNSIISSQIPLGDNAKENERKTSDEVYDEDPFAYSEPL
T2 sequence (Q8N7C0 24-313 partner): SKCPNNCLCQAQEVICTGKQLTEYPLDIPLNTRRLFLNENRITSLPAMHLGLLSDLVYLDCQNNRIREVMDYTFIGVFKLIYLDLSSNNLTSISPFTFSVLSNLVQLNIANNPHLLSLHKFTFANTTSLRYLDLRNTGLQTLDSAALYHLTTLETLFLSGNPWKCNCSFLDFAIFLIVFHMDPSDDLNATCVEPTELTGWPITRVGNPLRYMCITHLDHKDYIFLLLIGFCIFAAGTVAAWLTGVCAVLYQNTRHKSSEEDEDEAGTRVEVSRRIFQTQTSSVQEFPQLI
As to the kind of experiment: SLO3 patch-clamp electrophysiology, human SLO3-γ2 expressed in HEK293 cells. In kind it is cell-based. The settings on record: transfected HEK293 cells (human SLO3-γ2), whole-cell patch clamp, currents at +100 mV; read-out: hSLO3 IC50. The procedure:
(§1) HEK293 cells were transfected with the bicistronic vector pBUD-CE4.1 containing the genes of interest and a gene conferring antibiotic resistance. Cells were exposed to gradients of selection antibiotics, and optimal growth conditions for the stable lines were as follows: SLO3 and γ2 (SLO3-γ2) supplemented with 700 μg/mL Zeocin (Invitrogen); human SLO1 and β1 (SLO1-β1) with 1 mg/mL G418 (Sigma) and 3 μg/mL puromycin (Corning, Thermo Fisher); and human SLO1 and β4 (SLO1-β4) with 250 μg/mL Zeocin and 3 μg/mL puromycin. All cell lines were grown in Dulbecco’s Modified Eagle Medium (Gibco, Thermo Fisher) supplemented with 10% fetal bovine serum, 1% penicillin–streptomycin (Millipore Sigma), and selection antibiotics. To generate cells expressing SLO1 and γ2, stable SLO1-expressing HEK293 cells were transiently transfected with expression vectors for γ2 and green fluorescent protein (GFP) in the presence of lipofectamine (Invitrogen) for 5 h.
(§2) The cells were then washed and incubated in supplemented Dulbecco’s Modified Eagle Medium for 48 h before use. Patch-clamp electrophysiology was performed only on cells expressing GFP.
(§3) Currents in HEK293 cells were measured in the whole-cell patch-clamp configuration with an Axopatch 200B amplifier, digitized with a Digidata 1440A, and interfaced with Clampex 10.6.0.13 (Molecular Devices). […] An isolated cell was located on an Axiovert 200 microscope (Zeiss), and a gigaohm seal was formed with a borosilicate pipette with resistance between 3 and 6 MΩ and filled with internal solution (140 mM KMeSO3, 10 mM HEPES, 10 mM MES, 1 mM EGTA, pH 7). The seal was then broken by applying a negative pressure. Cells were kept at a holding potential of −60 mV for 50 ms, tested with a stepped voltage protocol from −80 to +150 mV in 10 mV increments for 100 ms, and then dropped to −40 mV for 50 ms with 2.5 s between sweeps. This protocol was used to record currents present with increasing concentration of our compound of interest or 3 μL/mL vehicle (DMSO) in the bath solution. Individual cells were tested with between 1 and 5 concentrations of the compound of interest or until the patch was lost. Currents were allowed to stabilize before the initial recording and after the perfusion solution was changed before recording.
Data were analyzed with a pClamp 10.6 (Molecular Devices). VU6047606 and VU6032735 inhibition dose–response relationships were fit by the Hill equation in OriginPro 7.5 (OriginLab Corporation): R=1/1+(C/IC50)^n+Ioff , in which R is fractional unblock, C is compound concentration, IC50 is the half inhibition concentration, n is the Hill coefficient, and I off is an offset item for leak current. Error bars in the figures represent the SDs. Each data point is averaged from at least 5 measurements. Curve-fitting results are reported as the fitted values with standard error, which was estimated by OriginPro according to the Error Propagation formula.

Data set [3] addresses T3, hSLO1 (Homo sapiens, UniProt Q12791).
T3 construct: expressed in transfected cells; host or cells: HEK293
Put plainly: SLO1 inhibition in HEK cells. In kind it is cell-based. The settings on record: for SLO1 selectivity (fold selective for SLO3): SLO1 IC50 / hSLO3 IC50. The procedure: as §1, §2, §3

For data set [4], the target named is T2, human SLO3. The arrangement: method as in PMID 36649421. To be noted: earlier work of the Santi Lab; cited from earlier work.
Data set [5] concerns the target T3, hSLO1. Details: method as in PMID 36649421. The settings on record: cited from earlier work.
In data set [6] the target is T1, hERG. Details: method as in PMID 36649421. To be noted: cited from earlier work.

T3 sequence (Q12791 whole entry): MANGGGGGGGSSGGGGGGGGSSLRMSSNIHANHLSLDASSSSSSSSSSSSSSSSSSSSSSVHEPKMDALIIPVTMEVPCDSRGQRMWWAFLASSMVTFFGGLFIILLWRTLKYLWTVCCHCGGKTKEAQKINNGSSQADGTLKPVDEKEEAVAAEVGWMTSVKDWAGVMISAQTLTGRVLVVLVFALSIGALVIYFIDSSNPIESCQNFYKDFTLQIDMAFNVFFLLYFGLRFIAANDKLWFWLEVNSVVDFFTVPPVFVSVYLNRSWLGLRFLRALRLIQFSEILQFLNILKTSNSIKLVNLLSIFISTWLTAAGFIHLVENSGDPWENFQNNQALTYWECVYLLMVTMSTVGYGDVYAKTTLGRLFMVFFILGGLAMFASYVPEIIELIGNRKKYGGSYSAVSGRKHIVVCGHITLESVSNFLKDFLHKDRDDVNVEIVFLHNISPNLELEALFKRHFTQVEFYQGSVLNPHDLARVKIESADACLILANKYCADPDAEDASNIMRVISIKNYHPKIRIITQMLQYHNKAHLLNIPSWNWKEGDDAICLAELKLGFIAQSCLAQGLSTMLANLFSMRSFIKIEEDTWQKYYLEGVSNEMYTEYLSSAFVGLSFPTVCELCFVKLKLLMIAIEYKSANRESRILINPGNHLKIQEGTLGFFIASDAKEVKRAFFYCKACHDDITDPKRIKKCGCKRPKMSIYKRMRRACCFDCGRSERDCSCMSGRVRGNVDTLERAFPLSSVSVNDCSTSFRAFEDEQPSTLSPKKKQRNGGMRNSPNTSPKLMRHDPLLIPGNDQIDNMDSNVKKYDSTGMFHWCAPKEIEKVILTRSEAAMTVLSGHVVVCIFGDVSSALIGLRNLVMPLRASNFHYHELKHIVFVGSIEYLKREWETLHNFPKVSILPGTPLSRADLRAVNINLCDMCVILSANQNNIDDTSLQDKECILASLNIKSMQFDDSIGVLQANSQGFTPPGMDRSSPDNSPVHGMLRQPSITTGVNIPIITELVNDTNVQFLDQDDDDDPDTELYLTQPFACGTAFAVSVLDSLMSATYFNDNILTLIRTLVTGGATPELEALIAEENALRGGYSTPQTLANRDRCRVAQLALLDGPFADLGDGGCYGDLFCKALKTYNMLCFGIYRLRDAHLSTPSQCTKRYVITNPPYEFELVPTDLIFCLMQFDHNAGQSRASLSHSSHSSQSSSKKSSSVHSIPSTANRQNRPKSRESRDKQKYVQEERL
T1 sequence (Q12809 whole entry): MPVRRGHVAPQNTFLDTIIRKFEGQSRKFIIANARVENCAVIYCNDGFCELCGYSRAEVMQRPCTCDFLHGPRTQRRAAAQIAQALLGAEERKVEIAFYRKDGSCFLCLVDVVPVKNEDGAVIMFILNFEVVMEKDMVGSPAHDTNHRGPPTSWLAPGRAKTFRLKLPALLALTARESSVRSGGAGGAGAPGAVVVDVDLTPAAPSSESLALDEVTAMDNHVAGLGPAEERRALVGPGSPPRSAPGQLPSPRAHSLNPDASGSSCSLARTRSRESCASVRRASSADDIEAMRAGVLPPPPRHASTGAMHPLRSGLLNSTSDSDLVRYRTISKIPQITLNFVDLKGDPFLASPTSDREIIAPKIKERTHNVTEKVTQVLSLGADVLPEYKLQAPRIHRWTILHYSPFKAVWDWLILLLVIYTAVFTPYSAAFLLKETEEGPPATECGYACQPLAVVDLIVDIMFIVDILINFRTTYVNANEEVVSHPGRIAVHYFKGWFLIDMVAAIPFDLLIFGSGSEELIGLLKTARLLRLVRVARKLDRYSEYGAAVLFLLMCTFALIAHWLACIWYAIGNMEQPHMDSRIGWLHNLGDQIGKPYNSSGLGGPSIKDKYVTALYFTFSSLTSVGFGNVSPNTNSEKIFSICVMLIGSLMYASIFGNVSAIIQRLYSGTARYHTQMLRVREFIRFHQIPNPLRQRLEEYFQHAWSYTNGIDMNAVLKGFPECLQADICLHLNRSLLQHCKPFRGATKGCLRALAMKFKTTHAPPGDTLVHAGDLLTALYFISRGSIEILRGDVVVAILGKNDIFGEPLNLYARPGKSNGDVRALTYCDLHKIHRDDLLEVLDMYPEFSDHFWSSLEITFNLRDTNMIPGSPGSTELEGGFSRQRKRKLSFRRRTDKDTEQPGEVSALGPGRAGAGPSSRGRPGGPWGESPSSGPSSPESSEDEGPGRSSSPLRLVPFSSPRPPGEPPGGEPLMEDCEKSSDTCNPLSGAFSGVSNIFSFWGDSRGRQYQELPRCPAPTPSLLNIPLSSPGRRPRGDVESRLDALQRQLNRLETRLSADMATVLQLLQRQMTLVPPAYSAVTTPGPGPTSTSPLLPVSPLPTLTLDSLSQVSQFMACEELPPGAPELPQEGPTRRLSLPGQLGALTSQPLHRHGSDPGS

Turning to `O=C(CCCS(=O)(=O)c1ccc(Cl)cc1)N1CCC(Oc2nc3ccccc3s2)CC1` [VU0528254], on hERG [1], the selectivity ratio came out at 4.2 and the IC50 – broadly, the point on the concentration scale where inhibition reaches its midpoint – worked out at 928 nM. Also, the IC50 at human SLO3 [2] turned out to be 223 nM. At hSLO1 [3], inhibition was half-maximal at 34000 nM (IC50) and the “SLO1 selectivity (fold selective for SLO3)” value was 153 fold.

As to `O=C(c1ccc(OCc2nc(C3CC3)cs2)cc1)N1CCN(c2ccc(C(F)(F)F)cn2)CC1` [VU0530373], on hERG [1], the selectivity ratio worked out at 1.1 and inhibition was half-maximal at 511 nM (IC50). Besides, the IC50 at human SLO3 [2] was 445 nM. On hSLO1 [3], the IC50 came to 6380 nM and the “SLO1 selectivity (fold selective for SLO3)” value was found to be 14 fold.

Turning to `COc1ccc(SCC2CCN(C(=O)Cc3ccc(S(=O)(=O)C(C)C)cc3)CC2)cc1` [VU0546110], on human SLO3 [4], the IC50 is 1290 nM. The “selectivity for SLO3 over SLO1” value on hSLO1 [5] is 46 fold. For the same molecule, on hERG [6], the “selectivity for SLO3 over hERG” value was 1.5 fold.
